Laboratory results from article PMC9030691, “Toxicokinetics of β-Amanitin in Mice and In Vitro Drug–Drug Interaction Potential” (Pharmaceutics, 2022).
Where two headings read alike, the source gives them in different places.

Assays:
in vivo = format: in vivo; conditions: male ICR mice, n = 4; for AUClast, brain: brain homogenate; for AUClast, heart: heart homogenate; for AUClast, kidney: kidney homogenate; for AUClast, liver: liver homogenate; for AUClast, lung: lung homogenate; for AUClast, spleen: spleen homogenate; for AUC(0-t): mouse, in vivo, plasma, read-out: AUClast, plasma (converted)
Experimental: Male mice fasted for 12 h with free access to water. Blood, brain, liver, kidney, heart, lung, stomach, intestine, and spleen were collected at 0.5, 1, 2, and 4 h after iv (0.8 mg/kg) injection or at 0.5, 1, 3, and 6 h after oral (10 mg/kg) administration of β-amanitin (n = 4 at each time point). Plasma samples (5 μL each) were harvested by centrifugation at 13,000× g for 3 min at 4 °C. Tissue samples were washed with cold normal saline, weighed, and stored at −80 °C until analysis.
Concentrations of β-amanitin in biological samples were evaluated following our previous methodology. The standard calibration curves for β-amanitin in mouse plasma ranged from 0.5 to 500 ng/mL and were linear, with a correlation coefficient of 0.9952. The inter- and intra-day accuracy and precision fell within the acceptance criteria (3.1–14.6% of coefficients of variation (CVs) and 92.5–115.0% of accuracy). The extraction recovery and matrix effect of this analytical method were 82.8–88.9% and 93.0–98.6%.
Each tissue and feces sample was homogenized in water (1:3, w/v). In total, 50 μL aliquots of urine, tissue homogenates, or feces homogenates were mixed with 150 μL of 4′-hydroxydiclofenac solution (IS, 5 ng/mL in methanol). The other steps were as described for plasma sample preparation.
Toxicokinetics of β-Amanitin in Mice and In Vitro Drug–Drug
Young Yoon Bang, Im-Sook Song, Min Seo Lee, Chang Ho Lim, Yong-Yeon Cho, Joo Young Lee, Han Chang Kang […]
1. Liquid chromatography-high resolution mass spectrometry (LC-HRMS) of β-amani-tin in various tissue samples
Blood, brain, liver, kidney, heart, lung, stomach, intestine, and spleen tissues were collected, washed with cold normal saline, and weighted. Tissue samples were homoge-nized in water (1:3, w/v) and 50 μL aliquots of tissue homogenates were mixed with 150 μL of 4’-hydroxydiclofenac solution (IS, 5 ng/mL in methanol) and vortexed for 2 min. The mixture was centrifuged at 13,000 rpm at 4 °C for 5 min, and the supernatant was then transferred to an autosampler vial. An aliquot (5 μL) was injected into the LC-HRMS sys-tem for analysis, according to the previous methods. The standard calibration curves for β-amanitin in various tissue homogenates were prepared individually using the re-spective blank tissue homogenates. Each calibration standard curve was validated using the quality control (QC) samples.
As results, the standard calibration curves for β-amanitin in various tissue homoge- […]
the quality control samples prepared in various tissue homogenates were all in acceptance criteria (Supplementary Table 1).
Table S1. Concentration ranges, representative regression equation, and correlation coefficients of the calibration curves and precision (coefficient of variation, CV) and accuracy values for β-amanitin […]
Tissue Concentration Representative regression Correlation range (ng/g tissue) equation coefficient QC (ng/g tissue) Intra-day (n = 5) Accuracy (%) CV (%) […]

CYP2C8 = molecular target: T1, CYP2C8 (Homo sapiens, UniProt P10632); assay: CYP2C8 inhibition in human liver microsomes; format: in vitro ADME; conditions: ultrapooled human liver microsomes 0.2 mg/mL, 2 μM amodiaquine, β-amanitin 0.1–100 μM, pH 7.4, 37 °C, 15 min, LC-MS/MS, n = 3, read-out: IC50, CYP2C8 amodiaquine N-deethylase
T1 construct: enzyme activities in HLMs were evaluated using LC-MS/MS and CYP substrates; from tissue; host or cells: ultrapooled human liver microsomes
T1 sequence (P10632 1-490): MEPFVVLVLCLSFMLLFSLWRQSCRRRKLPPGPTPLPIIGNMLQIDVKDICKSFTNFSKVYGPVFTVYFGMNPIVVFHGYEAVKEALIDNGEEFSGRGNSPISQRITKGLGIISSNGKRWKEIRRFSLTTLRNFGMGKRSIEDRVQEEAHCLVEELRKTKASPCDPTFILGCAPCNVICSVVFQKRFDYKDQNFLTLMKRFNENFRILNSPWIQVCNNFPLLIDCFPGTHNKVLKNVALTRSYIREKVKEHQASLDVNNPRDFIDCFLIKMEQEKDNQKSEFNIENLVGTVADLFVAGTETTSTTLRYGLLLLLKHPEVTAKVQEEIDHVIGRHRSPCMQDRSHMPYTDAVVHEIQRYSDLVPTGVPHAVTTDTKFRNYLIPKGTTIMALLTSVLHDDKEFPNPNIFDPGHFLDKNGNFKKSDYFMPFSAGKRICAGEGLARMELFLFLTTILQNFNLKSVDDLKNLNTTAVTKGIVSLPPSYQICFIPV
Experimental: β-amanitin inhibition (IC50 values) of CYP1A2, CYP2A6, CYP2B6, CYP2C8, CYP2C9, CYP2C19, CYP2D6, and CYP3A4 enzyme activities in HLMs were evaluated using LC-MS/MS and CYP substrates as previously described. Each incubation mixture was made up to a volume of 100 μL including HLMs (0.2 mg/mL), 50 mM potassium phosphate buffer (pH 7.4), 1.0 mM NADPH, 10 mM magnesium chloride, various concentrations of β-amanitin (0.1–100 μM), a cocktail of seven CYP probe substrates (50 μM phenacetin for CYP1A2, 2.5 μM coumarin for CYP2A6, 2 μM amodiaquine for CYP2C8, 10 μM diclofenac for CYP2C9, 100 μM [S]-mephenytoin for CYP2C19, 5 μM bufuralol for CYP2D6, and 2.5 μM midazolam for CYP3A4 in acetonitrile), or 50 μM bupropion for CYP2B6. The reactions were initiated with NADPH followed by incubation in a shaking water bath at 37 °C for 15 min with or without 30 min preincubation with NADPH. Reactions were stopped with 50 μL of ice-cold methanol containing ^13C2, ^15N-acetaminophen and d9-1′-hydroxybufuralol (ISs). Incubation mixtures were centrifuged at 13,000× g for 8 min at 4 °C. An aliquot (5 μL) of the supernatant from the reaction mixture was analyzed by the previous LC-MS/MS method.

[1] = iv 0.8 mg/kg, sampled 0.5, 1, 2, 4 h, LC-HRMS, mean ± SD
[2] = po 10 mg/kg, sampled 0.5, 1, 3, 6 h, LC-HRMS, mean ± SD

## CC[C@H](C)[C@@H]1NC(=O)CNC(=O)[C@@H]2Cc3c([nH]c4cc(O)ccc34)[S@+]([O-])C[C@H](NC(=O)CNC1=O)C(=O)N[C@@H](CC(=O)O)C(=O)N1C[C@H](O)C[C@H]1C(=O)N[C@@H]([C@@H](C)[C@@H](O)CO)C(=O)N2 [β-amanitin]
In vivo; iv 0.8 mg/kg, sampled 0.5, 1, 2, 4 h, LC-HRMS
  AUClast, brain: -
In vivo; [1]
  AUClast, heart: 13,397 ± 908 ng⋅min/g
  AUClast, kidney: 142,023 ± 7510 ng⋅min/g
  AUClast, liver: 25,780 ± 2440 ng⋅min/g
  AUClast, lung: 35,970 ± 3070 ng⋅min/g
  AUClast, spleen: 137,855 ± 11,949 ng⋅min/g
  AUC(0-t): 910 ng·h/mL
In vivo; iv 0.8 mg/kg
  Tissue to plasma (AUC) ratio, heart: 0.2
  Tissue to plasma (AUC) ratio, liver: 0.5
  Tissue to plasma (AUC) ratio, lung: 0.7
In vivo; iv 0.8 mg/kg, 0.8 mg/kg
  Tissue to plasma (AUC) ratio, kidney: 2.6
  Tissue to plasma (AUC) ratio, spleen: 2.5
In vivo; po 10 mg/kg, sampled 0.5, 1, 3, 6 h, LC-HRMS
  AUClast, brain: -
In vivo; [2]
  AUClast, heart: 12,563 ± 2696 ng⋅min/g
  AUClast, kidney: 158,677 ± 84,620 ng⋅min/g
  AUClast, liver: 12,665 ± 11,731 ng⋅min/g
  AUClast, lung: 37,831 ± 11,434 ng⋅min/g
  AUClast, spleen: 42,409 ± 33,867 ng⋅min/g
  AUC(0-t): 394 ng·h/mL
In vivo; po 10 mg/kg, intestine homogenate, sampled 0.5, 1, 3, 6 h, LC-HRMS, mean ± SD
  AUClast, intestine: 2,066,298 ± 492,689 ng⋅min/g
In vivo; po 10 mg/kg
  Tissue to plasma (AUC) ratio, heart: 0.5
  Tissue to plasma (AUC) ratio, intestine: 87.3
  Tissue to plasma (AUC) ratio, liver: 0.5
  Tissue to plasma (AUC) ratio, lung: 1.6
  Tissue to plasma (AUC) ratio, spleen: 1.8
  Tissue to plasma (AUC) ratio, stomach: 28.8
In vivo; po 10 mg/kg, stomach homogenate, sampled 0.5, 1, 3, 6 h, LC-HRMS, mean ± SD
  AUClast, stomach: 680,749 ± 137,691 ng⋅min/g
CYP2C8; with 30 min NADPH preincubation
  IC50: > 100 µM
CYP2C8; without NADPH preincubation
  IC50: > 100 µM
